Experimental data taken from patent US11291646B2, “Nozzle assembly and methods for use” (CRITITECH, INC., priority 2015, dated 2022).

Test: Bulk density
Format: physicochemical
Conditions: docetaxel; room temperature
Procedure: The mass of the drug was measured to a nearest 0.1 mg, the volume was determined to the nearest 0.1 mL and the density calculated.

CC(=O)O[C@@]12CO[C@@H]1C[C@H](O)[C@@]1(C)C(=O)[C@H](O)C3=C(C)[C@@H](OC(=O)[C@H](O)[C@@H](NC(=O)OC(C)(C)C)c4ccccc4)C[C@@](O)([C@@H](OC(=O)c4ccccc4)[C@H]21)C3(C)C [Docetaxel Raw Material, docetaxel]
Bulk Density: 0.24 g/cm3
